Laboratory results as given in patent publication US10173991B2, “Sulfone amide linked benzothiazole inhibitors of endothelial lipase” (BRISTOL-MYERS SQUIBB COMPANY, priority 2014, dated 2019).
Like-named read-outs stand apart in the source and are kept apart here.

Biological target: Endothelial lipase (EL) (Homo sapiens (Human), UniProt Q9Y5X9)
Experiment: Endothelial lipase (EL) enzymatic assay with fluorescent substrate A10070 in DMPG vesicles
Assay type: biochemical
How it was run: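 Compounds were preincubated with enzyme for 30 min at 37° C before FRET-substrate vesicles (A10070 in DMPG, 0.11 mole fraction) were added. Reaction rates were obtained from the 300–900 sec slope of fluorescence at 490/530 nm.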

[1] = EL from conditioned media of HT-1080 cells, 30 min preincubation at 37° C.

Endothelial lipase (EL), sequence (Q9Y5X9 21-500): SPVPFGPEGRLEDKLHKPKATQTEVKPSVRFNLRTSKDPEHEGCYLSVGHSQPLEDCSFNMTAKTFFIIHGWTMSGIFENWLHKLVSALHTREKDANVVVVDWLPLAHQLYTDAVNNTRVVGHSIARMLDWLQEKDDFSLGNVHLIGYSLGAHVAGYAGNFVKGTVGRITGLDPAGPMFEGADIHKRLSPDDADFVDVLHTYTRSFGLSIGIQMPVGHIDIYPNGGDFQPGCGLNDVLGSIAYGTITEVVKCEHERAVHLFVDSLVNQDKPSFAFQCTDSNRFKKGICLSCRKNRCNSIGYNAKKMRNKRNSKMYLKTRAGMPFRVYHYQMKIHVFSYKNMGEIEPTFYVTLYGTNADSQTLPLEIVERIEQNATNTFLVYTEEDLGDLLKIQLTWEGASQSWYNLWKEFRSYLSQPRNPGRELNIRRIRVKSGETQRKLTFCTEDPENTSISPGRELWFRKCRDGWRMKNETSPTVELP

SMILES | IC50 [nM] | IC50 [1] [nM]
COCCS(=O)(=O)C(C(=O)NCC(=O)NC1CC1)c1nc2cc(-c3cccc(C(=O)N4CCC(F)(F)C4)c3)ccc2s1 (stereo not drawn) [Example 396, N-[(cyclopropyl-carbamoyl)methyl]-2-{5-[3-(3,3-difluoro-pyrrolidine-1-carbonyl)phenyl]-1,3-benzothiazol-2-yl}-2-(2-methoxyethane-sulfonyl)acetamide] | 8 | –
COCCS(=O)(=O)C(C(=O)NCC(=O)NC1CC1)c1nc2cc(-c3cccc(C(=O)N4CCN(C)CC4)c3)ccc2s1 (stereo not drawn) [Example 397, N-[(cyclopropyl-carbamoyl)methyl]-2-(2-methoxyethane-sulfonyl)-2-{5-[3-(4-methylpiperazine-1-carbonyl)phenyl]-1,3-benzothiazol-2-yl}acetamide] | 19 | –
COCCS(=O)(=O)C(C(=O)NCC(=O)NC1CC1)c1nc2cc(-c3cccc(C(=O)N(C)C)c3)ccc2s1 (stereo not drawn) [Example 398, 3-[2-({[(cyclopropyl-carbamoyl)methyl]carbamoyl}(2-methoxyethane-sulfonyl)methyl)-1,3-benzothiazol-5-yl]-N,N-dimethyl-benzamide] | 38 | –
COCCS(=O)(=O)C(C(=O)NCC(=O)NC1CC1)c1nc2cc(-c3cccc(C(=O)NCCO)c3)ccc2s1 (stereo not drawn) [Example 399, 3-[2-({[(cyclopropyl-carbamoyl)methyl]carbamoyl}(2-methoxyethane-sulfonyl)methyl)-1,3-benzothiazol-5-yl]-N-(2-hydroxyethyl) benzamide] | 63 | –
COCCNC(=O)c1cccc(-c2ccc3sc(C(C(=O)NCC(=O)NC4CC4)S(=O)(=O)CCOC)nc3c2)c1 (stereo not drawn) [Example 400, 3-[2-({[(cyclopropyl-carbamoyl)methyl]carbamoyl}(2-methoxyethane-sulfonyl)methyl)-1,3-benzothiazol-5-yl]-N-(2-methoxyethyl) benzamide] | 9 | –
COC1(C)CN(C(=O)c2ccc(-c3ccc4nc(C(C(=O)NCC(=O)NC5CC5)S(=O)(=O)c5ccccc5)sc4c3)cc2)C1 (stereo not drawn) [Example 401, 2-(benzenesulfonyl)-N-[(cyclopropyl-carbamoyl)methyl]-2-{6-[4-(3-methoxy-3-methylazetidine-1-carbonyl)phenyl]-1,3-benzothiazol-2-yl}acetamide] | 5 | –
CC1(O)CN(C(=O)c2ccc(-c3ccc4nc(C(C(=O)NCC(=O)NC5CC5)S(=O)(=O)c5ccccc5)sc4c3)cc2)C1 (stereo not drawn) [Example 402, 2-(benzenesulfonyl)-N-[(cyclopropyl-carbamoyl)methyl]-2-{6-[4-(3-hydroxy-3-methylazetidine-1-carbonyl)phenyl]-1,3-benzothiazol-2-yl}acetamide] | 6 | –
COCCS(=O)(=O)C(C(=O)NCC(=O)NC1CC1)c1nc2ccc(-c3ccc(C(=O)N4CC[C@H](OC)C4)cc3)cc2s1 (stereo partly drawn) [Example 403, N-[(cyclopropyl-carbamoyl)methyl]-2-(2-methoxyethane-sulfonyl)-2-(6-{4-[(3S)-3-methoxy-pyrrolidine-1-carbonyl]phenyl}-1,3-benzothiazol-2-yl)acetamide] | 8 | –
COCCS(=O)(=O)C(C(=O)NCC(=O)NC1CC1)c1nc2ccc(-c3ccc(C(=O)N4CC(F)C4)cc3)cc2s1 (stereo not drawn) [Example 404] | 10 | –
COCCS(=O)(=O)C(C(=O)NCC(=O)NC1CC1)c1nc2ccc(-c3ccc(C(=O)N4CC(C)(O)C4)cc3)cc2s1 (stereo not drawn) [Example 405, N-[(cyclopropyl-carbamoyl)methyl]-2-{6-[4-(3-hydroxy-3-methylazetidine-1-carbonyl)phenyl]-1,3-benzothiazol-2-yl}-2-(2-methoxyethane-sulfonyl)acetamide] | 12 | –
COCCS(=O)(=O)C(C(=O)NCC(=O)NC1CC1)c1nc2ccc(-c3ccc(C(=O)N4CC(F)(F)C4)cc3)cc2s1 (stereo not drawn) [Example 406, N-[(cyclopropyl-carbamoyl)methyl]-2-{6-[4-(3,3-difluoroazetidine-1-carbonyl)phenyl]-1,3-benzothiazol-2-yl}-2-(2-methoxyethane-sulfonyl)acetamide] | 13 | –
COCCS(=O)(=O)C(C(=O)NCC(=O)NC1CC1)c1nc2ccc(-c3ccc(C(=O)N4CC[C@@H](OC)C4)cc3)cc2s1 (stereo partly drawn) [Example 407, N-[(cyclopropyl-carbamoyl)methyl]-2-(2-methoxyethane-sulfonyl)-2-(6-{4-[(3R)-3-methoxy-pyrrolidine-1-carbonyl]phenyl}-1,3-benzothiazol-2-yl)acetamide] | 24 | –
COCCS(=O)(=O)C(C(=O)NCC(=O)NC1CC1)c1nc2ccc(-c3ccc(C(=O)O)cc3)cc2s1 (stereo not drawn) [Example 408, 4-[2-({[(cyclopropyl-carbamoyl)methyl]carbamoyl}(2-methoxyethane-sulfonyl)methyl)-1,3-benzothiazol-6-yl]benzoic acid] | 48 | –
COCCNC(=O)c1ccc(-c2ccc3nc(C(C(=O)NCC(=O)NC4CC4)S(=O)(=O)CCOC)sc3c2)cc1OC (stereo not drawn) [Example 409, 4-[2-({[(cyclopropyl-carbamoyl)methyl]carbamoyl}(2-methoxyethane-sulfonyl)methyl)-1,3-benzothiazol-6-yl]-2-methoxy-N-(2-methoxyethyl) benzamide] | 23 | –
COCCNC(=O)c1ccc(-c2ccc3nc(C(C(=O)NCC(=O)NC4CC4)S(C)(=O)=O)sc3c2)cc1OC (stereo not drawn) [Example 410, 4-[2-({[(cyclopropyl-carbamoyl)methyl]carbamoyl} (methanesulfonyl)methyl)-1,3-benzothiazol-6-yl]-2-methoxy-N-(2-methoxyethyl) benzamide] | 53 | –
COCCS(=O)(=O)C(C(=O)NCC(=O)NC1CC1)c1nc2cc(F)c(-c3ccc(-c4ncon4)cc3)cc2s1 (stereo not drawn) [Example 411, 2-(6-(4-(1,2,4-Oxadiazol-3-yl)phenyl)-5-fluorobenzo[d]thiazol-2-yl)-N-(2-(cyclopropylamino)-2-oxoethyl)-2-((2-methoxyethyl)sulfonyl)acetamide] | – | 2.1
Cc1ccn(-c2cccc(-c3ccc4nc(C(C(=O)NCC(=O)NC5CC5)S(C)(=O)=O)sc4c3)n2)n1 (stereo not drawn) [Example 412, N-[(cyclopropyl-carbamoyl)methyl]-2-methanesulfonyl-2-{6-[6-(3-methyl-1H-pyrazol-1-yl)pyridin-2-yl]-1,3-benzothiazol-2-yl}acetamide] | 14 | –
Cc1cnn(-c2cccc(-c3ccc4nc(C(C(=O)NCC(=O)NC5CC5)S(C)(=O)=O)sc4c3)n2)c1 (stereo not drawn) [Example 413, N-[(cyclopropyl-carbamoyl)methyl]-2-methanesulfonyl-2-{6-[6-(4-methyl-1H-pyrazol-1-yl)pyridin-2-yl]-1,3-benzothiazol-2-yl}acetamide] | 7 | –
COCCS(=O)(=O)C(C(=O)NCC(=O)NC1CC1)c1nc2cc(F)c(-c3ccc(-c4cc(O)n[nH]4)cc3)cc2s1 (stereo not drawn) [Example 415, N-[(cyclopropyl-carbamoyl)methyl]-2-{5-fluoro-6-[4-(3-hydroxy-1H-pyrazol-5-yl)phenyl]-1,3-benzothiazol-2-yl}-2-(2-methoxyethane-sulfonyl)acetamide] | 49 | –
COCCS(=O)(=O)C(C(=O)NCC(=O)NC1CC1)c1nc2cc(F)c(-c3ccc4c(c3)CCN4C(C)=O)cc2s1 (stereo not drawn) [Example 416, 2-[6-(1-acetyl-2,3-dihydro-1H-indol-5-yl)-5-fluoro-1,3-benzothiazol-2-yl]-N-[(cyclopropyl-carbamoyl)methyl]-2-(2-methoxyethane-sulfonyl)acetamide] | 11 | –
COCCS(=O)(=O)C(C(=O)NCC(=O)NC1CC1)c1nc2cc(F)c(-c3ccc4c(c3)OCC(=O)N4)cc2s1 (stereo not drawn) [Example 417, N-[(cyclopropyl-carbamoyl)methyl]-2-[5-fluoro-6-(3-oxo-3,4-dihydro-2H-1,4-benzoxazin-7-yl)-1,3-benzothiazol-2-yl]-2-(2-methoxyethane-sulfonyl)acetamide] | 35 | –
COCCS(=O)(=O)C(C(=O)NCC(=O)NC1CC1)c1nc2cc(F)c(-c3ccc4c(c3)CCCN4C(=O)OC(C)(C)C)cc2s1 (stereo not drawn) [Example 418, tert-butyl 6-[2-({[(cyclopropyl-carbamoyl)methyl]carbamoyl}(2-methoxyethane-sulfonyl)methyl)-5-fluoro-1,3-benzothiazol-6-yl]-1,2,3,4-tetrahydro-quinoline-1-carboxylate] | 9 | –
COCCS(=O)(=O)C(C(=O)NCC(=O)NC1CC1)c1nc2cc(F)c(-c3ccc4c(c3)OCCN4C(=O)OCc3ccccc3)cc2s1 (stereo not drawn) [Example 419, benzyl 7-[2-({[(cyclopropyl-carbamoyl)methyl]carbamoyl}(2-methoxyethane-sulfonyl)methyl)-5-fluoro-1,3-benzothiazol-6-yl}-3,4-dihydro-2H-1,4-benzoxazine-4-carboxylate] | 9 | –
COCCS(=O)(=O)C(C(=O)NCC(=O)NC1CC1)c1nc2cc(F)c(-c3ccc(-c4nn[nH]n4)c(F)c3)cc2s1 (stereo not drawn) [Example 420, N-[(cyclopropyl-carbamoyl)methyl]-2-{5-fluoro-6-[3-fluoro-4-(2H-1,2,3,4-tetrazol-5-yl)phenyl]-1,3-benzothiazol-2-yl}-2-(2-methoxyethane-sulfonyl)acetamide] | 11 | –
O=C(CNC(=O)C(c1nc2cc(F)c(-c3ccc(F)nc3)cc2s1)S(=O)(=O)CCN1CCOCC1)NC1CC1 (stereo not drawn) [Example 421, N-[(Cyclopropylcarbamoyl)methyl]-2-[5-fluoro-6-(6-fluoropyridin-3-yl)-1,3-benzothiazol-2-yl]-2-[2-(morpholin-4-yl)ethanesulfonyl]acetamide] | – | 22
COC(=O)Nc1ccc(-c2cc3sc(C(C(=O)NCC(=O)NC4CC4)S(=O)(=O)CCN4CCOCC4)nc3cc2F)cc1 (stereo not drawn) [Example 422, methyl N-{4-[2-({[(cyclopropyl-carbamoyl)methyl]carbamoyl}[2-(morpholin-4-yl)ethanesulfonyl]methyl)-5-fluoro-1,3-benzothiazol-6-yl]phenyl} carbamate] | 3 | –
O=C(CNC(=O)C(c1nc2cc(F)c(-c3ccc(NC(=O)OCc4ccccc4)cc3)cc2s1)S(=O)(=O)CCN1CCOCC1)NC1CC1 (stereo not drawn) [Example 423, benzyl N-{4-[2-({[(cyclopropyl-carbamoyl)methyl]carbamoyl}[2-(morpholin-4-yl)ethanesulfonyl]methyl)-5-fluoro-1,3-benzothiazol-6-yl]phenyl} carbamate] | 1 | –
